This passage reports minimal effective concentration and DiMf/DiL4 results from patent publication US11771738B2 (Zoetis Services LLC, priority 2018, dated 2023).

Common to all, as to format: cell-based
For assay [1], the system named is microfilariae of Dirofilaria immitis. Description: Dirofilaria immitis, Microfilaria (DiMf) In Vitro Assay. To be noted: Dirofilaria immitis, 72 h, read-out: DiMf MED, Minimum Effective Dose, D. immitis microfilariae motility, in vitro.
Assay [2] deals with third stage larvae of Haemonchus contortus. Briefly: Haemonchus contortus, Larvae Stage 3 (HcL3) In Vitro Assay. The conditions noted are these: Haemonchus contortus, 96 h.
The test system of assay [3] is D. immitis L4 larvae. Briefly: Dirofilaria immitis, L4 Stage (DiL4) In Vitro Assay. The conditions noted are these: for minimal effective concentration: Dirofilaria immitis, 72 h, read-out: DiL4 MED, Minimum Effective Dose, D. immitis L4 larvae motility, in vitro; for DiMf/DiL4: larval stage selectivity, ratio of DiMf MED to DiL4 MED.
Setting [4] is: read-out: HcL3 MED (symbol after Ex#), approximately 96 hours incubation, multiple-resistant field isolate.
[5] abbreviates: read-out: HcL3 MED, Minimum Effective Dose, H. contortus third stage larvae, approximately 96 hours.
The mark [6] stands for this setting: read-out: HcL3 MED, approximately 96 hours incubation, multiple-resistant field isolate.

Read-outs that look alike come from different tables or passages of the source.

For `CC(C)C[C@H]1C(=O)O[C@H](Cc2ccc(Cc3ccco3)cc2)C(=O)N(C)[C@@H](CC(C)C)C(=O)O[C@H](C)C(=O)N(C)[C@@H](CC(C)C)C(=O)O[C@H](Cc2ccccc2)C(=O)N(C)[C@@H](CC(C)C)C(=O)O[C@H](C)C(=O)N1C` [Example 4-32, (3S,6R,9S,12R,15S,18R,21S,24R)-6-benzyl-18-(4-(furan-2-ylmethyl)benzyl)-3,9,15,21-tetraisobutyl-4,10,12,16,22,24-hexamethyl-1,7,13,19-tetraoxa-4,10,16,22-tetraazacyclotetracosan-2,5,8,11,14,17,20,23-octaone], the minimal effective concentration in assay [1] was 0.003 µM; in assay [2] (setting [4]), less than 1 µM; in assay [2] (setting [5]), 1 µM; in assay [2] (setting [6]), not above 1 µM; in assay [3], 0.001 µM. Moreover, the DiMf/DiL4 in assay [3] is 3.
With `Cc1ccsc1Cc1ccc(C[C@H]2OC(=O)[C@H](CC(C)C)N(C)C(=O)[C@@H](C)OC(=O)[C@H](CC(C)C)N(C)C(=O)[C@@H](Cc3ccccc3)OC(=O)[C@H](CC(C)C)N(C)C(=O)[C@@H](C)OC(=O)[C@H](CC(C)C)N(C)C2=O)cc1` [Example 4-34, (3S,6R,9S,12R,15S,18R,21S,24R)-6-benzyl-3,9,15,21-tetraisobutyl-4,10,12,16,22,24-hexamethyl-18-(4-((3-methylthiophen-2-yl)methyl)benzyl)-1,7,13,19-tetraoxa-4,10,16,22-tetraazacyclotetracosan-2,5,8,11,14,17,20,23-octaone], the minimal effective concentration in assay [1] is 0.01 µM; in assay [2] (setting [4]) it was less than 1 µM; in assay [2] (setting [5]), 0.5 µM; in assay [2] (setting [6]), not above 1 µM; in assay [3], 0.0003 µM. Besides, the DiMf/DiL4 in assay [3] amounted to 33.3.
Take `CC(C)C[C@H]1C(=O)O[C@H](Cc2ccc(Cc3occc3C#N)cc2)C(=O)N(C)[C@@H](CC(C)C)C(=O)O[C@H](C)C(=O)N(C)[C@@H](CC(C)C)C(=O)O[C@H](Cc2ccccc2)C(=O)N(C)[C@@H](CC(C)C)C(=O)O[C@H](C)C(=O)N1C` [Example 4-40, 2-(4-(((2R,5S,8R,11S,14R,17S,20R,23S)-14-benzyl-5,11,17,23-tetraisobutyl-4,8,10,16,20,22-hexamethyl-3,6,9,12,15,18,21,24-octaoxo-1,7,13,19-tetraoxa-4,10,16,22-tetraazacyclotetracosan-2-yl)methyl)benzyl)furan-3-carbonitrile]: the minimal effective concentration in assay [1] was 0.0005 µM; in assay [2] (setting [4]), less than 1 µM; in assay [2] (setting [5]), 0.5 µM; in assay [2] (setting [6]) it was not above 1 µM; in assay [3], 0.0002 µM. The DiMf/DiL4 in assay [3] was 2.5.
Turning to `CC(C)C[C@H]1C(=O)O[C@H](Cc2ccc(Cc3ccsc3)cc2)C(=O)N(C)[C@@H](CC(C)C)C(=O)O[C@H](C)C(=O)N(C)[C@@H](CC(C)C)C(=O)O[C@H](Cc2ccccc2)C(=O)N(C)[C@@H](CC(C)C)C(=O)O[C@H](C)C(=O)N1C` [Example 4-50, (3S,6R,9S,12R,15S,18R,21S,24R)-6-benzyl-3,9,15,21-tetraisobutyl-4,10,12,16,22,24-hexamethyl-18-(4-(thiophen-3-ylmethyl)benzyl)-1,7,13,19-tetraoxa-4,10,16,22-tetraazacyclotetracosan-2,5,8,11,14,17,20,23-octaone], the minimal effective concentration in assay [1] is 0.01 µM; in assay [2] (setting [4]) it was 1 to 3.3 µM; in assay [2] (setting [5]) it was 1.8 µM; in assay [3] it was 0.001 µM. The DiMf/DiL4 in assay [3] came to 10.
Regarding `CC(C)C[C@H]1C(=O)O[C@H](Cc2ccc(Cc3ccnn3C)cc2)C(=O)N(C)[C@@H](CC(C)C)C(=O)O[C@H](C)C(=O)N(C)[C@@H](CC(C)C)C(=O)O[C@H](Cc2ccccc2)C(=O)N(C)[C@@H](CC(C)C)C(=O)O[C@H](C)C(=O)N1C` [Example 4-63, (3S,6R,9S,12R,15S,18R,21S,24R)-6-benzyl-3,9,15,21-tetraisobutyl-4,10,12,16,22,24-hexamethyl-18-(4-((1-methyl-1H-pyrazol-5-yl)methyl)benzyl)-1,7,13,19-tetraoxa-4,10,16,22-tetraazacyclotetracosan-2,5,8,11,14,17,20,23-octaone], the minimal effective concentration in assay [1] was 0.001 µM; in assay [2] (setting [4]), less than 1 µM; in assay [2] (setting [5]) it was 1 µM; in assay [2] (setting [6]) it was not above 1 µM; in assay [3], 0.001 µM. Also, in assay [3], the DiMf/DiL4 was 1.
Turning to `CC(C)C[C@H]1C(=O)O[C@H](Cc2ccc(Cc3sccc3Cl)cc2)C(=O)N(C)[C@@H](CC(C)C)C(=O)O[C@H](C)C(=O)N(C)[C@@H](CC(C)C)C(=O)O[C@H](Cc2ccccc2)C(=O)N(C)[C@@H](CC(C)C)C(=O)O[C@H](C)C(=O)N1C` [Example 4-75, (3S,6R,9S,12R,15S,18R,21S,24R)-6-benzyl-18-(4-((3-chlorothiophen-2-yl)methyl)benzyl)-3,9,15,21-tetraisobutyl-4,10,12,16,22,24-hexamethyl-1,7,13,19-tetraoxa-4,10,16,22-tetraazacyclotetracosan-2,5,8,11,14,17,20,23-octaone], the minimal effective concentration is 0.01 µM in assay [1]; less than 1 µM in assay [2] (setting [4]); 1 µM in assay [2] (setting [5]); not above 1 µM in assay [2] (setting [6]); 0.0005 µM in assay [3]. Further, the DiMf/DiL4 in assay [3] came out at 20.
Turning to `COc1ccsc1Cc1ccc(C[C@H]2OC(=O)[C@H](CC(C)C)N(C)C(=O)[C@@H](C)OC(=O)[C@H](CC(C)C)N(C)C(=O)[C@@H](Cc3ccccc3)OC(=O)[C@H](CC(C)C)N(C)C(=O)[C@@H](C)OC(=O)[C@H](CC(C)C)N(C)C2=O)cc1` [Example 4-105, (3S,6R,9S,12R,15S,18R,21S,24R)-6-benzyl-3,9,15,21-tetraisobutyl-18-(4-((3-methoxythiophen-2-yl)methyl)benzyl)-4,10,12,16,22,24-hexamethyl-1,7,13,19-tetraoxa-4,10,16,22-tetraazacyclotetracosan-2,5,8,11,14,17,20,23-octaone], the minimal effective concentration in assay [1] is 0.005 µM; in assay [2] (setting [4]), less than 1 µM; in assay [2] (setting [5]), 0.3 µM; in assay [2] (setting [6]) it was not above 1 µM; in assay [3], 0.0002 µM. Further, the DiMf/DiL4 in assay [3] worked out at 25.
Consider `CC(C)C[C@H]1C(=O)O[C@H](Cc2ccc(Cc3scnc3Cl)cc2)C(=O)N(C)[C@@H](CC(C)C)C(=O)O[C@H](C)C(=O)N(C)[C@@H](CC(C)C)C(=O)O[C@H](Cc2ccccc2)C(=O)N(C)[C@@H](CC(C)C)C(=O)O[C@H](C)C(=O)N1C` [Example 4-107, (3S,6R,9S,12R,15S,18R,21S,24R)-6-benzyl-18-(4-((4-chlorothiazol-5-yl)methyl)benzyl)-3,9,15,21-tetraisobutyl-4,10,12,16,22,24-hexamethyl-1,7,13,19-tetraoxa-4,10,16,22-tetraazacyclotetracosan-2,5,8,11,14,17,20,23-octaone], for which the minimal effective concentration in assay [1] is 0.003 µM; in assay [2] (setting [4]) it was less than 1 µM; in assay [2] (setting [5]) it was 0.3 µM; in assay [2] (setting [6]), not above 1 µM; in assay [3] it was 0.0002 µM. For the same compound, in assay [3], the DiMf/DiL4 is on record as 15.
Turning to `Cc1noc(C)c1Cc1ccc(C[C@H]2OC(=O)[C@H](CC(C)C)N(C)C(=O)[C@@H](C)OC(=O)[C@H](CC(C)C)N(C)C(=O)[C@@H](Cc3ccccc3)OC(=O)[C@H](CC(C)C)N(C)C(=O)[C@@H](C)OC(=O)[C@H](CC(C)C)N(C)C2=O)cc1` [Example 4-109, (3S,6R,9S,12R,15S,18R,21S,24R)-6-benzyl-18-(4-((3,5-dimethylisoxazol-4-yl)methyl)benzyl)-3,9,15,21-tetraisobutyl-4,10,12,16,22,24-hexamethyl-1,7,13,19-tetraoxa-4,10,16,22-tetraazacyclotetracosan-2,5,8,11,14,17,20,23-octaone], the minimal effective concentration was 0.001 µM in assay [1]; less than 1 µM in assay [2] (setting [4]); 1 µM in assay [2] (setting [5]); not above 1 µM in assay [2] (setting [6]); 0.0004 µM in assay [3]. Moreover, the DiMf/DiL4 in assay [3] worked out at 2.5.
Consider `COc1ccc(Cc2ccc(C[C@H]3OC(=O)[C@H](CC(C)C)N(C)C(=O)[C@@H](C)OC(=O)[C@H](CC(C)C)N(C)C(=O)[C@@H](Cc4ccccc4)OC(=O)[C@H](CC(C)C)N(C)C(=O)[C@@H](C)OC(=O)[C@H](CC(C)C)N(C)C3=O)cc2)c(C)n1` [Example 4-118, (3S,6R,9S,12R,15S,18R,21S,24R)-6-benzyl-3,9,15,21-tetraisobutyl-18-(4-((6-methoxy-2-methylpyridin-3-yl)methyl)benzyl)-4,10,12,16,22,24-hexamethyl-1,7,13,19-tetraoxa-4,10,16,22-tetraazacyclotetracosan-2,5,8,11,14,17,20,23-octaone], for which the minimal effective concentration in assay [1] was 0.001 µM; in assay [2] (setting [4]) it was less than 1 µM; in assay [2] (setting [5]), 0.3 µM; in assay [2] (setting [6]), not above 1 µM; in assay [3], 0.0001 µM. Moreover, the DiMf/DiL4 in assay [3] came to 10.
